PMC5218480 (PLoS ONE, 2017)

Tested on: MV-4-11 cells
Test: Gene expression microarray analysis (Affymetrix PrimeView) and GSEA
Assay type: cell-based, human
Set-up: RFU PODN (11730768_x_at) / Fold change /veh PODN (11730768_x_at) / RFU LINC00158 (11744669_a_at) / Fold change /veh LINC00158 (11744669_a_at) / RFU DUSP10 (11751237_a_at) / Fold change /veh DUSP10 (11751237_a_at) / RFU ID3 (11757404_x_at) / Fold change /veh ID3 (11757404_x_at) / RFU PLEKHG5 (11737974_s_at) / Fold change /veh PLEKHG5 (11737974_s_at) / RFU LRRC4B (11730491_at) / Fold change /veh LRRC4B (11730491_at) / RFU GIMAP4 (11747438_a_at) / Fold change /veh GIMAP4 (11747438_a_at) / RFU KRT8 (11758183_x_at) / Fold change /veh KRT8 (11758183_x_at) / RFU CNN1 (11734310_a_at) / Fold change /veh CNN1 (11734310_a_at) / RFU VPS37D (11726825_at) / Fold change /veh VPS37D (11726825_at) / RFU C10orf10 (11716522_x_at) / Fold change /veh C10orf10 (11716522_x_at) / RFU KIR2DL2 /// KIR2DL4 /// KIR2DL5A /// KIR2DL5B /// KIR2DS1 /// KIR2DS2 /// KIR2DS3 /// KIR2DS4 /// KIR3DL3 /// KIR3DL3 /// KIR3DS1 (11738374_at) / Fold change /veh KIR2DL2 /// KIR2DL4 /// KIR2DL5A /// KIR2DL5B /// KIR2DS1 /// KIR2DS2 /// KIR2DS3 /// KIR2DS4 /// KIR3DL3 /// KIR3DL3 /// KIR3DS1 (11738374_at) / RFU C1QL1 (11718748_at) / Fold change /veh C1QL1 (11718748_at) / RFU TMPRSS4 (11747572_a_at) / Fold change /veh TMPRSS4 (11747572_a_at) / RFU HAMP (11756126_x_at) / Fold change /veh HAMP (11756126_x_at) / RFU RNFT2 (11725882_a_at) / Fold change /veh RNFT2 (11725882_a_at) / RFU NR4A2 (11747474_a_at) / Fold change /veh NR4A2 (11747474_a_at) / RFU ABCC12 (11746883_a_at) / Fold change /veh ABCC12 (11746883_a_at) / RFU TMEM136 (11760407_x_at) / Fold change /veh TMEM136 (11760407_x_at) / RFU CLDN22 /// WWC2 (11732394_at) / Fold change /veh CLDN22 /// WWC2 (11732394_at) / RFU HLA-DPB1 (11760878_x_at) / Fold change /veh HLA-DPB1 (11760878_x_at) / RFU SPINT1 (11716480_a_at) / Fold change /veh SPINT1 (11716480_a_at) / RFU GAP43 (11754022_s_at) / Fold change /veh GAP43 (11754022_s_at) / RFU A4GNT (11735810_at) / Fold change /veh A4GNT (11735810_at) / RFU PRB3 (11715151_x_at) / Fold change /veh PRB3 (11715151_x_at) / RFU TUBB4B (11761932_at) / Fold change /veh TUBB4B (11761932_at) / RFU CAPN14 (11732068_a_at) / Fold change /veh CAPN14 (11732068_a_at) / RFU TMCC2 (11721928_a_at) / Fold change /veh TMCC2 (11721928_a_at) / RFU IRGQ (11745062_a_at) / Fold change /veh IRGQ (11745062_a_at) / RFU FAM174B (11720279_a_at) / Fold change /veh FAM174B (11720279_a_at) / RFU TMPRSS4 (11748680_a_at) / Fold change /veh TMPRSS4 (11748680_a_at) / RFU FAM212B (11763350_a_at) / Fold change /veh FAM212B (11763350_a_at) / RFU PLEKHG5 (11743358_a_at) / Fold change /veh PLEKHG5 (11743358_a_at) / RFU ZSCAN30 (11745921_a_at) / Fold change /veh ZSCAN30 (11745921_a_at) / RFU CMKLR1 (11741424_a_at) / Fold change /veh CMKLR1 (11741424_a_at) / RFU LOC101060620 /// MAPK8IP1 (11723275_at) / Fold change /veh LOC101060620 /// MAPK8IP1 (11723275_at) / RFU SPTSSB (11747773_x_at) / Fold change /veh SPTSSB (11747773_x_at) / RFU PRSS12 (11739890_at) / Fold change /veh PRSS12 (11739890_at) / RFU BIN1 (11741810_x_at) / Fold change /veh BIN1 (11741810_x_at) / RFU WNT11 (11732464_a_at) / Fold change /veh WNT11 (11732464_a_at) / RFU C10orf10 (11716521_a_at) / Fold change /veh C10orf10 (11716521_a_at) / RFU C5orf56 (11738089_at) / Fold change /veh C5orf56 (11738089_at) / RFU CYB561 (11721691_x_at) / Fold change /veh CYB561 (11721691_x_at) / RFU ANKRD19P (11752326_a_at) / Fold change /veh ANKRD19P (11752326_a_at) / RFU OR2T12 /// OR2T33 /// OR2T8 (11738714_s_at) / Fold change /veh OR2T12 /// OR2T33 /// OR2T8 (11738714_s_at) / RFU VCAN (11748164_a_at) / Fold change /veh VCAN (11748164_a_at) / RFU JSRP1 (11732532_at) / Fold change /veh JSRP1 (11732532_at) / RFU KRTAP10-11 (11738290_x_at) / Fold change /veh KRTAP10-11 (11738290_x_at) / RFU MYO3A (11730013_a_at) / Fold change /veh MYO3A (11730013_a_at) / RFU EBF3 (11725865_a_at) / Fold change /veh EBF3 (11725865_a_at) / RFU CAMK2N1 (11719241_x_at) / Fold change /veh CAMK2N1 (11719241_x_at) / RFU C5orf56 (11738088_a_at) / Fold change /veh C5orf56 (11738088_a_at) / RFU OLFML3 (11715873_a_at) / Fold change /veh OLFML3 (11715873_a_at) / RFU LOC100653217 /// NTM (11731650_a_at) / Fold change /veh LOC100653217 /// NTM (11731650_a_at) / RFU MAPK11 (11762145_a_at) / Fold change /veh MAPK11 (11762145_a_at) / RFU FIZ1 (11724087_x_at) / Fold change /veh FIZ1 (11724087_x_at) / RFU OASL (11726364_x_at) / Fold change /veh OASL (11726364_x_at) / RFU SOX15 (11748057_x_at) / Fold change /veh SOX15 (11748057_x_at) / RFU CD79A (11719716_a_at) / Fold change /veh CD79A (11719716_a_at) / RFU HIST1H1D (11736915_at) / Fold change /veh HIST1H1D (11736915_at) / RFU CASKIN2 (11723855_a_at) / Fold change /veh CASKIN2 (11723855_a_at) / RFU LOC730098 (11760151_x_at) / Fold change /veh LOC730098 (11760151_x_at) / RFU OR4N2 (11742367_at) / Fold change /veh OR4N2 (11742367_at) / RFU PRRT2 (11749266_a_at) / Fold change /veh PRRT2 (11749266_a_at) / RFU SNX32 (11753110_a_at) / Fold change /veh SNX32 (11753110_a_at) / RFU CDHR5 (11726645_a_at) / Fold change /veh CDHR5 (11726645_a_at) / RFU RCAN1 (11760418_a_at) / Fold change /veh RCAN1 (11760418_a_at) / RFU FAM167A (11723789_a_at) / Fold change /veh FAM167A (11723789_a_at) / RFU FAM26E (11764081_at) / Fold change /veh FAM26E (11764081_at) / RFU ISYNA1 (11749810_s_at) / Fold change /veh ISYNA1 (11749810_s_at) / RFU ACY1 (11761880_at) / Fold change /veh ACY1 (11761880_at) / RFU 11764098_at / Fold change /veh 11764098_at / RFU SAMD14 (11745864_x_at) / Fold change /veh SAMD14 (11745864_x_at) / RFU NPB (11741838_a_at) / Fold change /veh NPB (11741838_a_at) / RFU TMPRSS6 (11731388_a_at) / Fold change /veh TMPRSS6 (11731388_a_at) / RFU KRTAP10-2 (11738614_at) / Fold change /veh KRTAP10-2 (11738614_at) / RFU ARHGAP8 /// PRR5-ARHGAP8 (11727945_x_at) / Fold change /veh ARHGAP8 /// PRR5-ARHGAP8 (11727945_x_at) / RFU KRTAP5-7 /// NADSYN1 (11734609_at) / Fold change /veh KRTAP5-7 /// NADSYN1 (11734609_at) / RFU RASL12 (11751679_a_at) / Fold change /veh RASL12 (11751679_a_at) / RFU CDKN2B (11736163_a_at) / Fold change /veh CDKN2B (11736163_a_at) / RFU PRF1 (11729649_at) / Fold change /veh PRF1 (11729649_at) / RFU, ZNF638 /// ZNF638-IT1 / Fold change vs veh, ZNF638 /// ZNF638-IT1 / RFU, PANK3 / Fold change vs veh, PANK3 / RFU, SH3YL1 / Fold change vs veh, SH3YL1 / RFU, ZEB2 / Fold change vs veh, ZEB2 / RFU, NRIP1 / Fold change vs veh, NRIP1 / RFU, PTTG1IP / Fold change vs veh, PTTG1IP / RFU, CAPN2 / Fold change vs veh, CAPN2 / RFU, MED14 / Fold change vs veh, MED14 / RFU, SNORA58 / Fold change vs veh, SNORA58 / RFU, C1orf63 / Fold change vs veh, C1orf63 / RFU, LRRFIP1 / Fold change vs veh, LRRFIP1 / RFU, NDUFAF7 / Fold change vs veh, NDUFAF7 / RFU, SLC12A2 / Fold change vs veh, SLC12A2 / RFU, IBTK / Fold change vs veh, IBTK / RFU, ESF1 / Fold change vs veh, ESF1 / Fold change vs veh, TMEM50B / RFU, TAOK1 / Fold change vs veh, TAOK1 / RFU, ACBD3 / Fold change vs veh, ACBD3 / RFU, TMA16 / Fold change vs veh, TMA16 / RFU, RWDD3 / Fold change vs veh, RWDD3 / RFU, BCAT1 / Fold change vs veh, BCAT1 / RFU, EDEM3 / Fold change vs veh, EDEM3 / RFU, TMEM33 / Fold change vs veh, TMEM33 / RFU, WDR75 / Fold change vs veh, WDR75 / RFU, AHCTF1 / Fold change vs veh, AHCTF1 / RFU, TFRC / Fold change vs veh, TFRC / RFU, ZDHHC17 / Fold change vs veh, ZDHHC17 / RFU, NOM1 / Fold change vs veh, NOM1 / RFU, ARL8B / Fold change vs veh, ARL8B / RFU, ZBTB11 / Fold change vs veh, ZBTB11 / RFU, TAMM41 / Fold change vs veh, TAMM41 / RFU, KIAA1704 /// LOC100996395 / Fold change vs veh, KIAA1704 /// LOC100996395 / RFU, ING1 / Fold change vs veh, ING1 / RFU, TRMT61B / Fold change vs veh, TRMT61B / RFU, FUBP3 / Fold change vs veh, FUBP3 / RFU, TP53 / Fold change vs veh, TP53 / RFU, TNKS2 / Fold change vs veh, TNKS2 / RFU, ZFP14 / Fold change vs veh, ZFP14 / RFU, ACTR2 / Fold change vs veh, ACTR2 / RFU, PPP3R1 / Fold change vs veh, PPP3R1 / RFU, PIK3R1 / Fold change vs veh, PIK3R1 / RFU, HNRNPA1 / Fold change vs veh, HNRNPA1 / RFU, RNF170 / Fold change vs veh, RNF170 / RFU, ZNF28 / Fold change vs veh, ZNF28 / RFU, RNGTT / Fold change vs veh, RNGTT / RFU, OGT / Fold change vs veh, OGT / RFU, BRD1 / Fold change vs veh, BRD1 / RFU, MARS / Fold change vs veh, MARS / RFU, ZNF655 / Fold change vs veh, ZNF655 / RFU, FAHD1 / Fold change vs veh, FAHD1 / RFU, BDP1 / Fold change vs veh, BDP1 / RFU, LRRCC1 / Fold change vs veh, LRRCC1 / RFU, ARID1A / Fold change vs veh, ARID1A / RFU, ZNF146 / Fold change vs veh, ZNF146 / RFU, ZNF330 / Fold change vs veh, ZNF330 / RFU, GPN3 / Fold change vs veh, GPN3 / RFU, C9orf123 / Fold change vs veh, C9orf123 / RFU, N4BP2L2 / Fold change vs veh, N4BP2L2 / RFU, ARFIP1 / Fold change vs veh, ARFIP1 / RFU, FAM179B / Fold change vs veh, FAM179B / RFU, BCL10 / Fold change vs veh, BCL10 / RFU, UHRF1BP1L / Fold change vs veh, UHRF1BP1L / RFU, BET1 / Fold change vs veh, BET1 / RFU, CNOT2 / Fold change vs veh, CNOT2 / RFU, ZNF268 / Fold change vs veh, ZNF268 / Fold change vs veh, ZNF507 / RFU, DGCR2 / Fold change vs veh, DGCR2 / RFU, WDSUB1 / Fold change vs veh, WDSUB1 / Fold change vs veh, HSP90B1 /// MIR3652 / RFU, ADSS / Fold change vs veh, ADSS / RFU, GK / Fold change vs veh, GK / RFU, ZNF148 / Fold change vs veh, ZNF148 / RFU, TAF9 / Fold change vs veh, TAF9 / RFU, SLC1A5 / Fold change vs veh, SLC1A5 / RFU, SLMO2 / Fold change vs veh, SLMO2 / RFU, ABCC4 / Fold change vs veh, ABCC4 / RFU, LOC101060439 /// RAP1B / Fold change vs veh, LOC101060439 /// RAP1B / RFU, RFX7 / Fold change vs veh, RFX7 / RFU, GTPBP10 / Fold change vs veh, GTPBP10 / RFU, CNEP1R1 / Fold change vs veh, CNEP1R1 / RFU, BIVM-ERCC5 /// ERCC5 / Fold change vs veh, BIVM-ERCC5 /// ERCC5 / RFU, ILF3 / Fold change vs veh, ILF3 / RFU 11762660_at / Fold change /veh 11762660_at / RFU VCAN (11757783_s_at) / Fold change /veh VCAN (11757783_s_at) / RFU DDX43 (11728927_at) / Fold change /veh DDX43 (11728927_at) / RFU KRT8 (11758188_x_at) / Fold change /veh KRT8 (11758188_x_at) / RFU NKD1 (11759106_at) / Fold change /veh NKD1 (11759106_at) / RFU SRD5A1 (11742802_a_at) / Fold change /veh SRD5A1 (11742802_a_at) / RFU TPSAB1 /// TPSB2 (11721975_s_at) / Fold change /veh TPSAB1 /// TPSB2 (11721975_s_at) / RFU GSTM3 (11746129_a_at) / Fold change /veh GSTM3 (11746129_a_at) / RFU IL23R (11737362_x_at) / Fold change /veh IL23R (11737362_x_at) / RFU TMEM51 (11727254_a_at) / Fold change /veh TMEM51 (11727254_a_at) / RFU PIWIL2 (11732686_x_at) / Fold change /veh PIWIL2 (11732686_x_at) / RFU ORM1 (11744905_x_at) / Fold change /veh ORM1 (11744905_x_at) / RFU CCDC152 (11743942_at) / Fold change /veh CCDC152 (11743942_at) / RFU ECM1 (11717891_a_at) / Fold change /veh ECM1 (11717891_a_at) / RFU IL23R (11748794_a_at) / Fold change /veh IL23R (11748794_a_at) / RFU TNFAIP8L3 (11732012_x_at) / Fold change /veh TNFAIP8L3 (11732012_x_at) / RFU MBOAT4 (11741988_at) / Fold change /veh MBOAT4 (11741988_at) / RFU 11764193_at / Fold change /veh 11764193_at / RFU TMEM53 (11763286_at) / Fold change /veh TMEM53 (11763286_at) / RFU MAGEB2 (11727129_at) / Fold change /veh MAGEB2 (11727129_at) / RFU TMEM200A (11744735_a_at) / Fold change /veh TMEM200A (11744735_a_at) / RFU CCDC152 (11751479_a_at) / Fold change /veh CCDC152 (11751479_a_at) / RFU FAM211A (11726209_a_at) / Fold change /veh FAM211A (11726209_a_at) / RFU RGS16 (11746705_a_at) / Fold change /veh RGS16 (11746705_a_at) / RFU VCAN (11755009_s_at) / Fold change /veh VCAN (11755009_s_at) / RFU RHOB (11743442_s_at) / Fold change /veh RHOB (11743442_s_at) / RFU RGS16 (11720943_a_at) / Fold change /veh RGS16 (11720943_a_at) / RFU RGS16 (11720944_at) / Fold change /veh RGS16 (11720944_at) / RFU, VPS4B / Fold change vs veh, VPS4B / RFU, CREB1 / Fold change vs veh, CREB1 / RFU, DNAJC13 / Fold change vs veh, DNAJC13 / RFU, GNAQ / Fold change vs veh, GNAQ / RFU, CDK5R1 / Fold change vs veh, CDK5R1 / RFU, ZRANB3 / Fold change vs veh, ZRANB3 / RFU, CUL4A / Fold change vs veh, CUL4A / RFU, CCNY / Fold change vs veh, CCNY / RFU, UFL1 / Fold change vs veh, UFL1 / RFU, COG3 / Fold change vs veh, COG3 / RFU, DIAPH2 / Fold change vs veh, DIAPH2 / RFU, SKA2 / Fold change vs veh, SKA2 / RFU, AFF3 / Fold change vs veh, AFF3 / RFU, LMF1 / Fold change vs veh, LMF1 / RFU, IPO11 / Fold change vs veh, IPO11 / RFU, DFFB / Fold change vs veh, DFFB / RFU, FOXP1 / Fold change vs veh, FOXP1 / RFU, CARD8 / Fold change vs veh, CARD8 / RFU, STRN3 / Fold change vs veh, STRN3 / RFU, ADK / Fold change vs veh, ADK / RFU, RASSF2 / Fold change vs veh, RASSF2 / RFU, WIPF1 / Fold change vs veh, WIPF1 / RFU, LARP1B / Fold change vs veh, LARP1B / RFU, RASA1 / Fold change vs veh, RASA1 / RFU, RB1 / Fold change vs veh, RB1 / RFU, PPFIA1 / Fold change vs veh, PPFIA1 / RFU, MAT2A / Fold change vs veh, MAT2A / RFU, CCT5 / Fold change vs veh, CCT5 / RFU, WDR92 / Fold change vs veh, WDR92 / RFU, CUX1 / Fold change vs veh, CUX1 / RFU, TTC7A / Fold change vs veh, TTC7A / RFU, TMEM135 / Fold change vs veh, TMEM135 / RFU, DEPTOR / Fold change vs veh, DEPTOR / RFU, CPM / Fold change vs veh, CPM / RFU, DNAJB6 / Fold change vs veh, DNAJB6 / RFU, CACNA2D3 / Fold change vs veh, CACNA2D3 / RFU, DTX4 / Fold change vs veh, DTX4 / RFU, TFCP2 / Fold change vs veh, TFCP2 / RFU, GMCL1 /// GMCL1P1 / Fold change vs veh, GMCL1 /// GMCL1P1 / RFU, AEBP2 / Fold change vs veh, AEBP2 / RFU, SNHG1 /// SNORD22 /// SNORD25 /// SNORD26 /// SNORD27 /// SNORD28 /// SNORD29 /// SNORD31 / Fold change vs veh, SNHG1 /// SNORD22 /// SNORD25 /// SNORD26 /// SNORD27 /// SNORD28 /// SNORD29 /// SNORD31 / Fold change (Aza/veh), C12orf56 (ProbeSet 11735607_a_at) / Fold change (ACY-1035/veh), C12orf56 (ProbeSet 11735607_a_at) / Fold change (Aza/veh), FGFR1OP (ProbeSet 11751329_s_at) / Fold change (ACY-1035/veh), FGFR1OP (ProbeSet 11751329_s_at) / Fold change (Aza/veh), VPS36 (ProbeSet 11739960_a_at) / Fold change (ACY-1035/veh), VPS36 (ProbeSet 11739960_a_at) / RFU SYPL1 (11715823_x_at) / Fold change /veh SYPL1 (11715823_x_at) / RFU IGFBP7 (11715501_s_at) / Fold change /veh IGFBP7 (11715501_s_at) / RFU REEP3 (11722064_at) / Fold change /veh REEP3 (11722064_at) / RFU IGLL1 (11728026_x_at) / Fold change /veh IGLL1 (11728026_x_at): dose or concentration left out as unconfirmed
Details: MV-4-11 cells, 48 hours

`Nc1ncn([C@@H]2O[C@H](CO)[C@@H](O)[C@H]2O)c(=O)n1` [azacitidine] was tested, and the “RFU ARHGAP8 /// PRR5-ARHGAP8 (11727945_x_at)” value was 97.01 RFU.
